US8486996B2, “Aroylfuranes and aroylthiophenes” (Basilea Pharmaceutica AG, priority 2006, dated 2013)
Like-named read-outs stand apart in the source and are kept apart here.

Legend:
[1] = system: tumor cells; assay: Mitochondrial membrane potential, JC-1 (read-out 48 h); assay type: cell-based; settings: JC-1, 48 h
Outline: (§1)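 Tumor cells were treated with test compounds (adherent cells after 24 h of attachment, suspension cells immediately), medium holding up to 5% DMSO. After 48 h, JC-1 (2-5 μg/ml in added medium) was applied for 30 min. Fluorescence microscopy (FITC/TRITC filters) scored the fraction of cells with dissipated mitochondrial membrane potential as categories A-D.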

[2] = as above; assay type: cell-based; settings: PBL, JC-1, 48 h
Outline: as §1

[3] = system: tumor cells; assay: MTS proliferation assay (72 h read-out); assay type: cell-based
Outline: (§2)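 Tumour cells (1.5×10^3–10^4 per well) were seeded 24 h before compound addition, then exposed to 0.001–10 μM final compound for 72 h under culture conditions. MTS reagent was added for a further 3 h, absorbance was read at 492 nm, and results were binned into scores A–D.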

[4] = MTS proliferation assay (72 h read-out); assay type: cell-based; settings: Homo sapiens, MRC5 cells
Outline: as §2

[5] = system: tumor cells; assay: Hoechst 33342 nuclear staining (48 h read-out); assay type: cell-based
Outline: (§3)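 Adherent cells pre-spread 24 h before dosing, suspension cells dosed at seeding; compounds at 0.001 μM-10 μM final, 48 h at culture conditions. Hoechst 33342 (2-5 μg/ml) added for 30 min, then fluorescence microscopy scoring of apoptotic nuclear fraction and apoptosis-specific morphology, reported as scores A-D.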

[6] = Hoechst 33342 nuclear staining (48 h read-out); assay type: cell-based
Outline: as §3

[7] = Homo sapiens, HeLa cells, read-out: Mitochondrial membrane potential (read-out 48 h) HeLa
[8] = Homo sapiens, Jurkat cells, read-out: Mitochondrial membrane potential (read-out 48 h) Jurkat
[9] = Homo sapiens, MCF7 cells, read-out: Mitochondrial membrane potential (read-out 48 h) MCF7
[10] = Jily cells, read-out: Mitochondrial membrane potential (read-out 48 h) Jily
[11] = Homo sapiens, HT-1080, HT1080 cells, read-out: MTS proliferation assay IC50, HT1080
[12] = Homo sapiens, HeLa cells, read-out: MTS proliferation assay IC50, HeLa
[13] = Jily cells, read-out: MTS proliferation assay IC50, Jily
[14] = Homo sapiens, HeLa cells, read-out: Hoechst 33342 nuclear staining EC50, HeLa
[15] = Homo sapiens, Jurkat cells, read-out: Hoechst 33342 nuclear staining EC50, Jurkat
[16] = Jily cells, read-out: Hoechst 33342 nuclear staining EC50, Jily
[17] = Homo sapiens, MRC5 cells, read-out: Hoechst 33342 nuclear staining EC50, MRC5
[18] = PBL, read-out: Hoechst 33342 nuclear staining EC50, PBL
[19] = Homo sapiens, Jurkat cells, read-out: MTS proliferation assay IC50, Jurkat

Compound	melting point [°C]	EC50 [1, 7] [µM]	EC50 [1, 8] [µM]	EC50 [1, 9] [µM]	EC50 [1, 10] [µM]	EC50 [2] [µM]	IC50 [3, 11] [µM]	IC50 [3, 12] [µM]	IC50 [3, 13] [µM]	EC50 [5, 14] [µM]	EC50 [5, 15] [µM]	EC50 [5, 16] [µM]	EC50 [6, 18] [µM]	IC50 [3, 19] [µM]	IC50 [4] [µM]	EC50 [6, 17] [µM]
CCOc1ccc(N)cc1C(=O)c1oc2ccc(Cl)cc2c1N [Example 7]	144 to 146	0.1 to 1	0.1 to 1	> 1	0.1 to 1	> 1	0.1 to 1	0.1 to 1	0.1 to 1	0.1 to 1	0.1 to 1	0.1 to 1	> 1		> 1	> 1
CCOc1ccc(Cl)cc1C(=O)c1oc2nc(C)ccc2c1N [Example 27]	174 to 176	0.01 to 0.1	0.01 to 0.1	0.1 to 1	0.01 to 0.1	> 1	0.01 to 0.1	0.01 to 0.1	0.01 to 0.1	0.01 to 0.1	< 0.01	0.01 to 0.1	> 1	0.01 to 0.1	0.01 to 0.1	> 1
CCOc1ccccc1C(=O)c1oc2nc(C)ccc2c1N [Example 28]	156 to 158	0.1 to 1	0.01 to 0.1	> 1	0.1 to 1	> 1	0.1 to 1	0.1 to 1	0.01 to 0.1	0.1 to 1	0.01 to 0.1	0.01 to 0.1	> 1	0.01 to 0.1	0.1 to 1	> 1
CCOc1ccccc1C(=O)c1oc2cnc(C)cc2c1N [Example 30]	168	0.1 to 1	0.1 to 1	> 1	0.1 to 1	> 1	0.1 to 1	0.1 to 1	0.1 to 1	0.1 to 1	0.1 to 1	0.1 to 1	> 1	0.1 to 1	> 1	> 1

Continued, in another order:

melting point [°C]	EC50 [1, 7] [µM]	EC50 [1, 8] [µM]	EC50 [1, 9] [µM]	EC50 [1, 10] [µM]	EC50 [2] [µM]	IC50 [3, 11] [µM]	IC50 [3, 12] [µM]	IC50 [3, 13] [µM]	EC50 [5, 14] [µM]	EC50 [5, 15] [µM]	EC50 [5, 16] [µM]	EC50 [6, 18] [µM]	IC50 [3, 19] [µM]	Compound	IC50 [4] [µM]	EC50 [6, 17] [µM]
121 to 124	> 1	> 1	> 1	> 1	> 1	> 1	> 1	> 1	> 1	> 1	> 1	> 1	> 1	CCOc1c(OC)cccc1C(=O)c1oc2ccc(Cl)cc2c1N [Example 24]	> 1	> 1
156 to 158	> 1	0.1 to 1	0.1 to 1		> 1				> 1	0.1 to 1	0.1 to 1	> 1		CCOc1ccccc1C(=O)COc1nc(C)ccc1C#N [Example 145]		> 1
138 to 140	0.1 to 1	0.01 to 0.1	0.1 to 1		> 1				0.1 to 1	0.01 to 0.1	0.1 to 1	> 1		CCOc1ccc(Cl)cc1C(=O)COc1nc(C)ccc1C#N [Example 146]		0.1 to 1
